# Target: Human DAAO (Homo sapiens, UniProt P14920)
# Test: D-Amino Acid Oxidase enzyme assay (D-serine, horseradish peroxidase/Amplex Red coupled fluorescence)
# Format: biochemical
# Conditions: D-serine 5 mM, pH 7.4
# Experimental: DAAO enzyme activity was measured using the substrate D-serine at its Michaelis-Menton Km of 5 mM. The rate of oxidation is measured as a rate of production of hydrogen peroxide, which was detected using the enzyme horseradish peroxidase (Sigma cat. No. P-8375). This coupled reaction uses the enzyme substrate Amplex Red (Molecular Probes), which is converted to the fluorescent reaction product, resorufin (excitation 530-560 nm; emission ˜590 nm). Although DAAO has a higher pH optimum, all reagents were prepared in 50 mM sodium phosphate buffer at pH 7.4 and inhibition curves were generated at this pH.
# The final concentrations of components in 200 μl total volume per well (black clear-bottom 96-well plate, Costar) were:
# (a) Horseradish peroxidase: 4 Units per mL
# (d) Amplex Red reagent: 50 uM
# The reactions were initiated by addition of DAAO enzyme and the fluorescence was monitored. H2O2 was added at 16 uM final concentration to a control well on each plate to test for compound interference with a coupled enzyme. Inhibition curves were generated in the presence of varying concentrations of the inhibitor and IC50 values were calculated for each inhibitor.
# Chain of Human DAAO (P14920 whole entry): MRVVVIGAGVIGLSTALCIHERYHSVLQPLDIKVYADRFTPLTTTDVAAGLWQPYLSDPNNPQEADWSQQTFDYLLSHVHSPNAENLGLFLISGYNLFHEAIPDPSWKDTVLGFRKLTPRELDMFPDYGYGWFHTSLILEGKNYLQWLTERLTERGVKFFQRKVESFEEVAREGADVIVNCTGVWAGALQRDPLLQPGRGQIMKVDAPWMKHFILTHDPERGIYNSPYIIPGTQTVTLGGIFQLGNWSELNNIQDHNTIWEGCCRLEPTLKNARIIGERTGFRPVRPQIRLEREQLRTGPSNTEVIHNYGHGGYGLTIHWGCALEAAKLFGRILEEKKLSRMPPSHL
row,IC50 [µM],SMILES
1,≤ 100,"O=C(O)c1[nH]c2c(c1Br)[C@H]1C[C@H]1C2 [Compound 145, (1aS,5aS)-1a,4,5,5a-tetrahydro-1H-2-bromo-4-aza-cyclopropa[α]pentalene-3-carboxylic acid]"
2,≤ 100,"COc1cccc(CC2CCc3[nH]c(C(=O)O)cc32)c1 (single isomer, unassigned) [Compound 67, 4-(3-methoxybenzyl)-1,4,5,6-tetrahydrocyclopenta[b]pyrrole-2-carboxylic acid]"
3,≤ 1,"O=C(O)c1cc2c([nH]1)CC(F)(F)C2 [Compound 21, 5,5-difluoro-1,4,5,6-tetrahydrocyclopenta[b]pyrrole-2-carboxylic acid]"
4,≤ 100,"O=C(O)c1cc2c([nH]1)C(CCCc1ccccc1)CC2 (single isomer, unassigned) [Compound 135, 6-(3-phenylpropyl)-1,4,5,6-tetrahydrocyclopenta[b]pyrrole-2-carboxylic acid]"
5,≤ 0.1,"O=C(O)c1cc2c([nH]1)CCC2Cc1cccc(C2CC2)c1 (centres unmarked) [Compound 73, 4-(3-cyclopropylbenzyl)-1,4,5,6-tetrahydrocyclopenta[b]pyrrole-2-carboxylic acid]"
6,≤ 1,"CC1CCc2[nH]c(C(=O)O)cc21 (racemic) [Compound 4, 4-methyl-1,4,5,6-tetrahydrocyclopenta[b]pyrrole-2-carboxylic acid]"
7,≤ 0.1,"O=C(O)c1cc2c([nH]1)CCC2c1cccc(Cl)c1 (centres unmarked) [Compound 102, 4-(3-chlorophenyl)-1,4,5,6-tetrahydrocyclopenta[b]pyrrole-2-carboxylic acid]"
8,≤ 1,"NC(=O)c1cccc(CC2CCc3[nH]c(C(=O)O)cc32)c1 (centres unmarked) [Compound 77, 4-(3-carbamoylbenzyl)-1,4,5,6-tetrahydrocyclopenta[b]pyrrole-2-carboxylic acid]"
9,≤ 0.1,"O=C(O)c1cc2c([nH]1)C(Cc1cccc(Cl)c1)CC2 (racemic) [Compound 121, 6-(3-chlorobenzyl)-1,4,5,6-tetrahydrocyclopenta[b]pyrrole-2-carboxylic acid]"
10,≤ 1,"CC(=O)c1cccc(CC2CCc3[nH]c(C(=O)O)cc32)c1 (centres unmarked) [Compound 76, 4-(3-acetylbenzyl)-1,4,5,6-tetrahydrocyclopenta[b]pyrrole-2-carboxylic acid]"
11,≤ 100,"Cc1c(C(=O)O)[nH]c2c1C(=O)CCC2 [Compound 31, 3-methyl-4-oxo-4,5,6,7-tetrahydro-1H-indole-2-carboxylic acid]"
12,≤ 0.1,"O=C(O)c1cc2c([nH]1)CCC2Cc1ccc(F)c(F)c1 (racemic) [Compound 42, 4-(3,4-difluorobenzyl)-1,4,5,6-tetrahydrocyclopenta[b]pyrrole-2-carboxylic acid]"
13,≤ 100,"O=C(O)c1cc2c([nH]1)CCCC2Cc1ccccc1 (centres unmarked) [Compound 32, 4-benzyl-4,5,6,7-tetrahydro-1H-indole-2-carboxylic acid]"
14,≤ 100,"O=C(O)c1cc2c([nH]1)CCC2c1cccc(F)c1 (single isomer, unassigned) [Compound 95, 4-(3-fluorophenyl)-1,4,5,6-tetrahydrocyclopenta[b]pyrrole-2-carboxylic acid]"
15,≤ 100,"O=C(O)c1cc2c([nH]1)CCC2Cc1ccc(Cl)cc1 (single isomer, unassigned) [Compound 16, 4-(4-chlorobenzyl)-1,4,5,6-tetrahydrocyclopenta[b]pyrrole-2-carboxylic acid]"
16,≤ 1,"O=C(O)c1cc2c([nH]1)CCC2CC1CCCCC1 (centres unmarked) [Compound 12, 4-(cyclohexylmethyl)-1,4,5,6-tetrahydrocyclopenta[b]pyrrole-2-carboxylic acid]"
17,≤ 1,"CC1Cc2cc(C(=O)O)[nH]c2C1 (centres unmarked) [Compound 22, 5-methyl-1,4,5,6-tetrahydrocyclopenta[b]pyrrole-2-carboxylic acid]"
18,≤ 1,"Cc1ccc(C2CCc3[nH]c(C(=O)O)cc32)cc1 (centres unmarked) [Compound 37, 4-p-tolyl-1,4,5,6-tetrahydrocyclopenta[b]pyrrole-2-carboxylic acid]"
19,≤ 1,"O=C(O)c1cc2c([nH]1)CCC2CCc1ccccc1 (racemic) [Compound 18, 4-phenethyl-1,4,5,6-tetrahydrocyclopenta[b]pyrrole-2-carboxylic acid]"
20,≤ 1,"O=C(O)c1cc2c([nH]1)CCC2Cc1cccc(-c2cccnc2)c1 (centres unmarked) [Compound 83, 4-(3-(pyridin-3-yl)benzyl)-1,4,5,6-tetrahydrocyclopenta[b]pyrrole-2-carboxylic acid]"
21,≤ 100,"O=C(O)c1cc2c([nH]1)C(CCc1ccccc1)CC2 (single isomer, unassigned) [Compound 29, 6-phenethyl-1,4,5,6-tetrahydrocyclopenta[b]pyrrole-2-carboxylic acid]"

row,IC50 [µM],SMILES
1,≤ 100,"CCCC1CCc2[nH]c(C(=O)O)cc21 (single isomer, unassigned) [Compound 9, 4-propyl-1,4,5,6-tetrahydrocyclopenta[b]pyrrole-2-carboxylic acid]"
2,> 100,"CC(C)(C)c1c(C(=O)O)[nH]c2c1C(=O)CC2 [Compound 3, 3-tert-butyl-4-oxo-1,4,5,6-tetrahydrocyclopenta[b]pyrrole-2-carboxylic acid]"
3,≤ 100,"Cc1cc(C)cc(C2CCc3[nH]c(C(=O)O)cc32)c1 (centres unmarked) [Compound 104, 4-(3,5-dimethylphenyl)-1,4,5,6-tetrahydrocyclopenta[b]pyrrole-2-carboxylic acid]"
4,≤ 0.1,"O=C(O)c1cc2c([nH]1)C(Cc1cccc(Br)c1)CC2 (single isomer, unassigned) [Compound 127, 6-(3-bromobenzyl)-1,4,5,6-tetrahydrocyclopenta[b]pyrrole-2-carboxylic acid]"
5,≤ 0.1,"O=C(O)c1cc2c([nH]1)CCC2Cc1ccc(Cl)cc1 (single isomer, unassigned) [Compound 15, 4-(4-chlorobenzyl)-1,4,5,6-tetrahydrocyclopenta[b]pyrrole-2-carboxylic acid]"
6,≤ 1,"O=C(O)c1cc2c([nH]1)C(c1ccc(F)c(F)c1)CC2 (centres unmarked) [Compound 112, 6-(3,4-difluorophenyl)-1,4,5,6-tetrahydrocyclopenta[b]pyrrole-2-carboxylic acid]"
7,≤ 100,"COc1ccc(CCC2CCc3[nH]c(C(=O)O)cc32)cc1 (centres unmarked) [Compound 34, 4-(4-methoxyphenethyl)-1,4,5,6-tetrahydrocyclopenta[b]pyrrole-2-carboxylic acid]"
8,≤ 0.1,"O=C(O)c1cc2c([nH]1)CCC2Cc1cc(F)cc(Cl)c1 (centres unmarked) [Compound 55, 4-(3-chloro-5-fluorobenzyl)-1,4,5,6-tetrahydrocyclopenta[b]pyrrole-2-carboxylic acid]"
9,≤ 0.1,"O=C(O)c1cc2c([nH]1)CCC2Cc1ccc(F)cc1F (racemic) [Compound 45, 4-(2,4-difluorobenzyl)-1,4,5,6-tetrahydrocyclopenta[b]pyrrole-2-carboxylic acid]"
10,≤ 0.1,"O=C(O)c1cc2c([nH]1)CCC2c1cccc(F)c1 (racemic) [Compound 94, 4-(3-fluorophenyl)-1,4,5,6-tetrahydrocyclopenta[b]pyrrole-2-carboxylic acid]"
11,≤ 100,"COc1cccc(CC2CCc3cc(C(=O)O)[nH]c32)c1 (single isomer, unassigned) [Compound 130, 6-(3-methoxybenzyl)-1,4,5,6-tetrahydrocyclopenta[b]pyrrole-2-carboxylic acid]"
12,≤ 1,"O=C(O)c1cc2c([nH]1)CCC2Cc1ccc(-c2ccccc2)cc1 (centres unmarked) [Compound 81, 4-(biphenyl-4-ylmethyl)-1,4,5,6-tetrahydrocyclopenta[b]pyrrole-2-carboxylic acid]"
13,≤ 1,"O=C(O)c1cc2c([nH]1)C(CCc1ccccc1)CC2 (centres unmarked) [Compound 27, 6-phenethyl-1,4,5,6-tetrahydrocyclopenta[b]pyrrole-2-carboxylic acid]"
14,≤ 1,"O=C(O)c1cc2c([nH]1)C(CCCc1ccccc1)CC2 (single isomer, unassigned) [Compound 136, 6-(3-phenylpropyl)-1,4,5,6-tetrahydrocyclopenta[b]pyrrole-2-carboxylic acid]"
15,≤ 1,"O=C(O)c1cc2c([nH]1)CCC2CCCc1ccccc1 (centres unmarked) [Compound 36, 4-(3-phenylpropyl)-1,4,5,6-tetrahydrocyclopenta[b]pyrrole-2-carboxylic acid]"
16,≤ 1,"CC(C)C1CCc2[nH]c(C(=O)O)cc21 (centres unmarked) [Compound 10, 4-isopropyl-1,4,5,6-tetrahydrocyclopenta[b]pyrrole-2-carboxylic acid]"
17,≤ 1,"O=C(O)c1cc2c([nH]1)CCC2Cc1ccc(F)cc1 (single isomer, unassigned) [Compound 41, 4-(4-fluorobenzyl)-1,4,5,6-tetrahydrocyclopenta[b]pyrrole-2-carboxylic acid]"
18,≤ 100,"Cc1cc(F)ccc1CC1CCc2[nH]c(C(=O)O)cc21 (single isomer, unassigned) [Compound 52, 4-(4-fluoro-2-methylbenzyl)-1,4,5,6-tetrahydrocyclopenta[b]pyrrole-2-carboxylic acid]"
19,≤ 1,"O=C(O)c1cc2c([nH]1)C(=O)CC2 [Compound 24, 6-oxo-1,4,5,6-tetrahydro-cyclopenta[b]pyrrole-2-carboxylic acid]"
20,≤ 1,"O=C(O)c1cc2c([nH]1)CCC2Cc1ccc2ccccc2c1 (single isomer, unassigned) [Compound 79, 4-(naphthalen-2-ylmethyl)-1,4,5,6-tetrahydrocyclopenta[b]pyrrole-2-carboxylic acid]"

# From patent US7902252B2, “Inhibitors of D-amino acid oxidase” (Sepracor, Inc., priority 2007, dated 2011)
